Earlier results as cited in US20190046552A1, “COMPOSITIONS AND METHODS FOR THE TREATMENT OF HCV INFECTION” (priority 2015, published 2019).

Test system: panel of cell lines
Details: read-out: 50% cytotoxic concentration (CC50), Coughlin et al. 2010; cited from earlier work

CO[C@H]1C(OP(=O)(OC[C@H]2O[C@@H](n3cnc4c(N)ncnc43)CC2O)SCOC(=O)OC(C)C)[C@@H](CO)O[C@H]1n1ccc(=O)[nH]c1=O (stereo partly shown) [Formula (II)]
CC50: > 1000 µM
